# Measured values taken from patent publication US12172983B2, “EGFR inhibitors” (Blueprint Medicines Corporation, priority 2019, dated 2024).
# Where two headings read alike, the source gives them in different places.
# How the values were obtained:
# [1] = test system: phosphorylation of EGFR (Tyr1068) in NCI-H1975 cell line that harbors the EGFR L858R T790M mutations; test: NCI-H1975 pEGFR AlphaLISA assay; format: cell-based; conditions: 4-5 hours incubation, read-out: Ext pEGFR H1975
# Outline: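 Phospho-EGFR Tyr1068 AlphaLISA readout: lysates taken from compound-treated H1975 cells (L858R T790M EGFR) after a 4-5 h exposure at 37 °C. Cells had adhered overnight beforehand. IC50 derived by plotting % pEGFR inhibition against log compound concentration.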
# EGFR (L858R T790M C797S) = biological target: T1, EGFR (L858R T790M C797S) (Homo sapiens, UniProt P00533, C797S/L858R/T790M); test: Biochemical EGFR inhibition assay (Caliper mobility shift), EGFR LRTMCS mutant; conditions: inhibitory activity against EGFR LRTMCS mutant; apparent IC50; read-out: Ext Enz LRTMCS
# T1 construct: purchased SignalChem E10-122VG
# T1 sequence (P00533 25-1210 T790M/C797S/L858R): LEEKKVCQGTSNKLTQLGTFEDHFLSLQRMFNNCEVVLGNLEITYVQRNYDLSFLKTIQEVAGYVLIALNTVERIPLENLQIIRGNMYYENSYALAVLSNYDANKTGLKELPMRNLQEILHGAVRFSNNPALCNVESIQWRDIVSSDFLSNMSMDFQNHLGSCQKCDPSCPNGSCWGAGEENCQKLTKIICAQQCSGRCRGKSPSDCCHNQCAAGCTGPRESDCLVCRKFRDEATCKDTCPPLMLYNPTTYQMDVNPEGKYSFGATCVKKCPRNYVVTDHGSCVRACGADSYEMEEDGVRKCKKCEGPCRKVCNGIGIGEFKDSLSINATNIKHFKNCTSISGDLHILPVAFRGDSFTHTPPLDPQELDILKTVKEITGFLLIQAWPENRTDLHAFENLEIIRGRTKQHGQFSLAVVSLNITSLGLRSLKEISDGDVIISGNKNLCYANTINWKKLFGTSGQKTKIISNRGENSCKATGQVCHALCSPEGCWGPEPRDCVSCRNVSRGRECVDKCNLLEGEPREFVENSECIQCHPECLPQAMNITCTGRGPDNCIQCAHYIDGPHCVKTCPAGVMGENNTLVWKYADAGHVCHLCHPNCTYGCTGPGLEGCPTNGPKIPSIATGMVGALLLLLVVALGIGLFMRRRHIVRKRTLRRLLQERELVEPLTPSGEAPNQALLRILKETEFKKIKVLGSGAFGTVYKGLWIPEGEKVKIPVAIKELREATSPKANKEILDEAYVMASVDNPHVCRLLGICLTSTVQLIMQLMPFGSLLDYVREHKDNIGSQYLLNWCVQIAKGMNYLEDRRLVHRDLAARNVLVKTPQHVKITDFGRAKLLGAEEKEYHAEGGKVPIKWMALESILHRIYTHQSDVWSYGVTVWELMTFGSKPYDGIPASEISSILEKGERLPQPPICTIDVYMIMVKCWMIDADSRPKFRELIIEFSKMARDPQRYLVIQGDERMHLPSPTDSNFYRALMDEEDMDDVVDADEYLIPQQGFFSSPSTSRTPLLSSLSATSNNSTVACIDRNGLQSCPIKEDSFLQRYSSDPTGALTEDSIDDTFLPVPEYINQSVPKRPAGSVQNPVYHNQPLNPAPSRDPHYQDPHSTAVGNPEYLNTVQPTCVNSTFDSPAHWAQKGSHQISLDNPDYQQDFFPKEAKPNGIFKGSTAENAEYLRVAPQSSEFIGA
# Outline: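 Apparent IC50s were derived by plotting percent activity against the log of compound concentration. Activity was measured as phosphopeptide electrophoretically separated from substrate, after reactions at room temperature reached 10% to 20% phosphorylation and were halted with 35 mM EDTA.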
# [2] = Homo sapiens, NCI-H1975, inhibition of phosphorylation of mutant EGFR in NCI-H1975 cells
"IC50 [1, 2] [nM]",IC50 (EGFR (L858R T790M C797S)) [nM],IC50 ([1]; inhibition of phosphorylation of mutant EGFR in NCI-H1975 cells) [nM],SMILES
≤ 10,≤ 15,–,"CCS(=O)(=O)CC1CN(c2ccc(C(C)C)c3cc(Nc4ccnc(N5CC[C@@H](OC)[C@@H](F)C5)n4)ncc23)C1 [Compound 261, 8-{3-[(ethanesulfonyl)methyl]azetidin-1-yl}-N-{2-[(3S,4R)-3-fluoro-4-methoxypiperidin-1-yl]pyrimidin-4-yl}-5-(propan-2-yl)isoquinolin-3-amine]"
≤ 10,≤ 15,–,"CC(C)c1ccc(N2C[C@H](CS(C)(=O)=O)[C@H]2C)c2cnc(Nc3ccnc(N4CC[C@@H](OC[C@H](C)O)[C@@H](F)C4)n3)cc12 (single isomer, unassigned) [Compound 247, (2S)-1-{[(3S,4R)-3-fluoro-1-[4-({8-[(2R,3S)-3-(methanesulfonylmethyl)-2-methylazetidin-1-yl]-5-(propan-2-yl)isoquinolin-3-yl}amino)pyrimidin-2-yl]piperidin-4-yl]oxy}propan-2-ol or (2R)-1-{[(3S,4R)-3-fluoro-1-[4-({8-[(2R,3S)-3-(methanesulfonylmethyl)-2-methylazetidin-1-yl]-5-(propan-2-yl)isoquinolin-3-yl}amino)pyrimidin-2-yl]piperidin-4-yl]oxy}propan-2-ol]"
≤ 10,15.1 to 20,–,"CC(C)c1ccc(N2C[C@@H](CS(C)(=O)=O)[C@@H]2C)c2cnc(Nc3ccnc(N4C[C@@H](F)[C@@H](O)C(C)(C)C4)n3)cc12 (single isomer, unassigned) [Compound 183, (4S,5R)-5-fluoro-1-[4-({8-[(2S,3R)-3-(methanesulfonylmethyl)-2-methylazetidin-1-yl]-5-(propan-2-yl)isoquinolin-3-yl}amino)pyrimidin-2-yl]-3,3-dimethylpiperidin-4-ol or (4R,5S)-5-fluoro-1-[4-({8-[(2S,3R)-3-(methanesulfonylmethyl)-2-methylazetidin-1-yl]-5-(propan-2-yl)isoquinolin-3-yl}amino)pyrimidin-2-yl]-3,3-dimethylpiperidin-4-ol]"
≤ 10,30.1 to 100,–,"CO[C@@H]1[C@H](O)CN(c2nccc(Nc3cc4c(C(C)C)ccc(N5C[C@H](CS(C)(=O)=O)[C@H]5C)c4cn3)n2)CC1(F)F (single isomer, unassigned) [Compound 232, (3S,4S)-5,5-difluoro-1-(4-(5-isopropyl-8-((2R,3S)-2-methyl-3-(methylsulfonylmethyl)azetidin-1-yl)isoquinolin-3-ylamino)pyrimidin-2-yl)-4-methoxypiperidin-3-ol or (3R,4R)-5,5-difluoro-1-(4-(5-isopropyl-8-((2R,3S)-2-methyl-3-(methylsulfonylmethyl)azetidin-1-yl)isoquinolin-3-ylamino)pyrimidin-2-yl)-4-methoxypiperidin-3-ol]"
≤ 10,≤ 15,–,"CO[C@H]1CCN(c2nccc(Nc3cc4c(C(C)C)ccc(N5C[C@H](CS(C)(=O)=O)[C@H]5C)c4cn3)n2)C[C@H]1OCCO (single isomer, unassigned) [Compound 295, 2-{[(3R,4S)-1-[4-({8-[(2R,3S)-3-(methanesulfonylmethyl)-2-methylazetidin-1-yl]-5-(propan-2-yl)isoquinolin-3-yl}amino)pyrimidin-2-yl]-4-methoxypiperidin-3-yl]oxy}ethan-1-ol or 2-{[(3S,4R)-1-[4-({8-[(2R,3S)-3-(methanesulfonylmethyl)-2-methylazetidin-1-yl]-5-(propan-2-yl)isoquinolin-3-yl}amino)pyrimidin-2-yl]-4-methoxypiperidin-3-yl]oxy}ethan-1-ol]"
≤ 10,≤ 15,–,"CO[C@@H]1CCN(c2nncc(Nc3cc4c(C(C)C)ccc(N5CC(CS(C)(=O)=O)C5)c4cn3)n2)C[C@@H]1F [Compound 75, N-{3-[(3S,4R)-3-fluoro-4-methoxypiperidin-1-yl]-1,2,4-triazin-5-yl}-8-[3-(methanesulfonylmethyl)azetidin-1-yl]-5-(propan-2-yl)isoquinolin-3-amine]"
≤ 10,≤ 15,–,"CO[C@@H]1CCN(c2nccc(Nc3cc4c(C(C)C)cnc(N5CC(CS(C)(=O)=O)C5)c4cn3)n2)C[C@@H]1F [Compound 72, N-{2-[(3S,4R)-3-fluoro-4-methoxypiperidin-1-yl]pyrimidin-4-yl}-8-[3-(methanesulfonylmethyl)azetidin-1-yl]-5-(propan-2-yl)-2,7-naphthyridin-3-amine]"
10.1 to 20,≤ 15,–,"CCS(=O)(=O)CC1CN(c2cccc3cc(Nc4ccnc(N5C[C@H](F)[C@H](O)C(C)(C)C5)n4)ncc23)C1 (single isomer, unassigned) [Compound 27, (4S,5R)-1-{4-[(8-{3-[(ethanesulfonyl)methyl]azetidin-1-yl}isoquinolin-3-yl)amino]pyrimidin-2-yl}-5-fluoro-3,3-dimethylpiperidin-4-ol or (4R,5S)-1-{4-[(8-{3-[(ethanesulfonyl)methyl]azetidin-1-yl}isoquinolin-3-yl)amino]pyrimidin-2-yl}-5-fluoro-3,3-dimethylpiperidin-4-ol]"
≤ 10,≤ 15,–,"CO[C@@H]1CCN(c2nccc(Nc3cc4c(C(C)C)cnc(N5C[C@H](CS(C)(=O)=O)[C@H]5C)c4cn3)n2)C[C@@H]1F [Compound 132, N-{2-[(3S,4R)-3-fluoro-4-methoxypiperidin-1-yl]pyrimidin-4-yl}-8-[(2R,3S)-3-(methanesulfonylmethyl)-2-methylazetidin-1-yl]-5-(propan-2-yl)-2,7-naphthyridin-3-amine]"
30.1 to 50,≤ 15,–,"CC(C)c1ccc(N2CC(CS(C)(=O)=O)C2)c2cnc(Nc3ccnc(N4CC5CCC(C4)O5)n3)cc12 [Compound 12, 8-[3-(methanesulfonylmethyl)azetidin-1-yl]-N-(2-{8-oxa-3-azabicyclo[3.2.1]octan-3-yl}pyrimidin-4-yl)-5-(propan-2-yl)isoquinolin-3-amine]"
20.1 to 30,15.1 to 20,–,"CO[C@@H]1CCN(c2nccc(Nc3cc4c(C(C)C)ccc(N5C[C@H](CS(C)(=O)=O)[C@H]5C)c4cn3)n2)C[C@@H]1CO (single isomer, unassigned) [Compound 173, [(3R,4R)-1-[4-({8-[(2R,3S)-3-(methanesulfonylmethyl)-2-methylazetidin-1-yl]-5-(propan-2-yl)isoquinolin-3-yl}amino)pyrimidin-2-yl]-4-methoxypiperidin-3-yl]methanol or [(3S,4S)-1-[4-({8-[(2R,3S)-3-(methanesulfonylmethyl)-2-methylazetidin-1-yl]-5-(propan-2-yl)isoquinolin-3-yl}amino)pyrimidin-2-yl]-4-methoxypiperidin-3-yl]methanol]"
20.1 to 30,15.1 to 20,–,"CC(C)c1ccc(N2CC(CS(C)(=O)=O)C2)c2cnc(Nc3ccnc(N4CC[C@](F)([C@@H](C)O)C4)n3)cc12 (single isomer, unassigned) [Compound 58, (1R)-1-[(3R)-3-fluoro-1-[4-({8-[3-(methanesulfonylmethyl)azetidin-1-yl]-5-(propan-2-yl)isoquinolin-3-yl}amino)pyrimidin-2-yl]pyrrolidin-3-yl]ethan-1-ol or (1S)-1-[(3S)-3-fluoro-1-[4-({8-[3-(methanesulfonylmethyl)azetidin-1-yl]-5-(propan-2-yl)isoquinolin-3-yl}amino)pyrimidin-2-yl]pyrrolidin-3-yl]ethan-1-ol]"
30.1 to 50,≤ 15,–,"CC(C)c1ccc(N2CC(CS(C)(=O)=O)C2)c2cnc(Nc3ccnc(N4CC5COC(C5)C4)n3)cc12 (racemic) [Compound 13, (rac)-8-[3-(methanesulfonylmethyl)azetidin-1-yl]-N-{2-[6-oxa-3-azabicyclo[3.2.1]octan-3-yl]pyrimidin-4-yl}-5-(propan-2-yl)isoquinolin-3-amine]"
20.1 to 30,≤ 15,–,"CC(C)c1ccc(N2C[C@H](CS(C)(=O)=O)[C@H]2C)c2cnc(Nc3cnnc(N4CC[C@@](C)(O)[C@@H](F)C4)n3)cc12 (single isomer, unassigned) [Compound 142]"
30.1 to 50,30.1 to 100,–,"CO[C@@H]1CCN(c2nccc(Nc3cc4c(C(C)C)ccc(N5C[C@H](CS(C)(=O)=O)[C@H]5C)c4cn3)n2)C[C@H]1C#N (single isomer, unassigned) [Compound 166, (3S,4R)-1-[4-({8-[(2R,3S)-3-(methanesulfonylmethyl)-2-methylazetidin-1-yl]-5-(propan-2-yl)isoquinolin-3-yl}amino)pyrimidin-2-yl]-4-methoxypiperidine-3-carbonitrile or (3R,4S)-1-[4-({8-[(2R,3S)-3-(methanesulfonylmethyl)-2-methylazetidin-1-yl]-5-(propan-2-yl)isoquinolin-3-yl}amino)pyrimidin-2-yl]-4-methoxypiperidine-3-carbonitrile]"
–,30.1 to 100,≤ 10,"[2H]C([2H])([2H])O[C@H]1[C@@H](O)CN(c2nccc(Nc3cc4c(C(C)C)ccc(N5C[C@H](CS(C)(=O)=O)[C@H]5C)c4cn3)n2)CC1(F)F (single isomer, unassigned) [Compound 314, (3S,4S)-5,5-difluoro-1-(4-((5-isopropyl-8-((2R,3S)-2-methyl-3-((methylsulfonyl)methyl)azetidin-1-yl)isoquinolin-3-yl)amino)pyrimidin-2-yl)-4-(^2H3)methoxypiperidin-3-ol or (3R,4R)-5,5-difluoro-1-(4-((5-isopropyl-8-((2R,3S)-2-methyl-3-((methylsulfonyl)methyl)azetidin-1-yl)isoquinolin-3-yl)amino)pyrimidin-2-yl)-4-(^2H3)methoxypiperidin-3-ol]"
